Reference: a compilation of properties of binary mixtures (doi:10.1007/s10953-018-0729-9)

Assay: xn = mol fraction of the nth substance listed
Conditions: 101.3 kPa

In the case of `O=C1CCCN1` + CCCC[n+]1ccn(C)c1.F[P-](F)(F)(F)(F)F, the speed of sound (303.15 K, x2 = 0) is reported as 1618 m/s, the speed of sound (303.15 K, x2 = 0.0494) is reported as 1584.7 m/s and the speed of sound (303.15 K, x2 = 0.1025) is reported as 1575.2 m/s. The speed of sound (303.15 K, x2 = 0.1503) was 1566.5 m/s, the speed of sound (303.15 K, x2 = 0.2215) was 1553.8 m/s and the speed of sound (303.15 K, x2 = 0.3376) was 1532.9 m/s. For the same molecule, the speed of sound (303.15 K, x2 = 0.4502) was 1512.7 m/s, the speed of sound (303.15 K, x2 = 0.5654) was 1492 m/s and the speed of sound (303.15 K, x2 = 0.6527) was 1476.3 m/s. For the same molecule, the speed of sound (303.15 K, x2 = 0.8295) was 1446.5 m/s, the speed of sound (303.15 K, x2 = 0.8622) was 1442.6 m/s and the speed of sound (303.15 K, x2 = 0.9019) was 1438.5 m/s. The speed of sound (308.15 K, x2 = 0.1025) was 1560 m/s, the speed of sound (308.15 K, x2 = 0.1503) was 1551.8 m/s and the speed of sound (308.15 K, x2 = 0.3376) was 1519.5 m/s. For the same molecule, the speed of sound (308.15 K, x2 = 0.4502) was 1499.9 m/s, the speed of sound (308.15 K, x2 = 0.5654) was 1479.6 m/s and the speed of sound (308.15 K, x2 = 0.6527) was 1464.2 m/s. For the same molecule, the speed of sound (308.15 K, x2 = 0.7421) was 1448.2 m/s, the speed of sound (308.15 K, x2 = 0.8295) was 1434.6 m/s and the speed of sound (308.15 K, x2 = 0.8622) was 1430.7 m/s. For the same molecule, the speed of sound (308.15 K, x2 = 0.9019) was 1426.6 m/s, the speed of sound (308.15 K, x2 = 0.9495) was 1423 m/s and the speed of sound (313.15 K, x2 = 0) was 1585.4 m/s. The speed of sound (313.15 K, x2 = 0.0494) was 1553.7 m/s, the speed of sound (313.15 K, x2 = 0.1025) was 1545.1 m/s and the speed of sound (313.15 K, x2 = 0.1503) was 1537.3 m/s. For the same molecule, the speed of sound (313.15 K, x2 = 0.2215) was 1525.6 m/s, the speed of sound (313.15 K, x2 = 0.3376) was 1506.3 m/s and the speed of sound (313.15 K, x2 = 0.6527) was 1452.3 m/s. For the same molecule, the speed of sound (313.15 K, x2 = 0.7421) was 1436.5 m/s, the speed of sound (313.15 K, x2 = 0.8295) was 1422.9 m/s and the speed of sound (313.15 K, x2 = 0.9019) was 1414.8 m/s. The speed of sound (313.15 K, x2 = 0.9495) was 1411.2 m/s, the speed of sound (318.15 K, x2 = 0) was 1569.4 m/s and the speed of sound (318.15 K, x2 = 0.0494) was 1538.4 m/s. The speed of sound (318.15 K, x2 = 0.1025) was 1530.3 m/s, the speed of sound (318.15 K, x2 = 0.1503) was 1522.9 m/s and the speed of sound (318.15 K, x2 = 0.2215) was 1511.8 m/s. For the same molecule, the speed of sound (318.15 K, x2 = 0.3376) was 1493.2 m/s, the speed of sound (318.15 K, x2 = 0.4502) was 1474.8 m/s and the speed of sound (318.15 K, x2 = 0.5654) was 1455.4 m/s. For the same molecule, the speed of sound (318.15 K, x2 = 0.6527) was 1440.5 m/s, the speed of sound (318.15 K, x2 = 0.7421) was 1424.8 m/s and the speed of sound (318.15 K, x2 = 0.8622) was 1407.5 m/s. It also gave a speed of sound (318.15 K, x2 = 0.9019) of 1403.3 m/s, a speed of sound (318.15 K, x2 = 0.9495) of 1399.6 m/s and a speed of sound (323.15 K, x2 = 0.0494) of 1523.2 m/s. It also gave a speed of sound (323.15 K, x2 = 0.1503) of 1508.6 m/s, a speed of sound (323.15 K, x2 = 0.2215) of 1498 m/s and a speed of sound (323.15 K, x2 = 0.3376) of 1480.2 m/s. It also gave a speed of sound (323.15 K, x2 = 0.4502) of 1462.4 m/s, a speed of sound (323.15 K, x2 = 0.5654) of 1443.5 m/s and a speed of sound (323.15 K, x2 = 0.6527) of 1428.8 m/s. For the same molecule, the speed of sound (323.15 K, x2 = 0.7421) was 1413.4 m/s, the speed of sound (323.15 K, x2 = 0.8622) was 1396.1 m/s and the speed of sound (323.15 K, x2 = 0.9019) was 1391.9 m/s.

`CCCC[n+]1ccn(C)c1.F[P-](F)(F)(F)(F)F` + O=C1CCCN1 showed a speed of sound (303.15 K, x1 = 1) of 1431.7 m/s, a speed of sound (308.15 K, x1 = 1) of 1419.8 m/s and a speed of sound (313.15 K, x1 = 1) of 1408.2 m/s. The speed of sound (318.15 K, x1 = 1) was 1396.8 m/s and the speed of sound (323.15 K, x1 = 1) was 1385.6 m/s.
